Reference: patent US20240366606A1, “MRGPRX2 ANTAGONISTS AND USES THEREOF” (The Regents of the University of California, priority 2021, published 2024)

Columns and labels:
MRGPRX2 [1] = experiment: BRET2 Gq activation, MRGPRX2 pocket mutants, HEK293T cells; format: cell-based, human
Description: (§1) Bioluminescence resonance energy transfer assay 2 (BRET2). To measure the receptor mediated G protein activation, HEK293T cells were plating either in six-well dishes containing 350-400 k cells per well, or 10-cm dishes at approximately 2 million per dish 20-24 h prior to transfection. The cells were then transfected with a 1:1:1:1 ratio of the receptor:GurLuc8:Gβ:GγGFP DNA. Transit 2020 (Mirus biosciences) was used to complex the DNA at a ratio of 3 μL Transit/μg DNA, in OptiMEM (GIBCO) at a concentration of 10 ng DNA per μL OptiMEM. After 24 h, the cells were plated in poly-L-lysine coated 96-well white clear bottom cell culture plates in plating media (DMEM+1% dialyzed FBS) at a density of 40-50,000 cells in 200 μl per well and incubated overnight. The next day, the media was carefully aspirated and cells were washed once with 60 μl of drug buffer (1×HBSS, 20 mM HEPES, 0.1% (w/v) BSA, pH 7.4), then 60 μl drug buffer containing coelenterazine 400a (nanolight technology) at 5 μM final concentration was added to each well and incubate for 5 min. Cells were then treated with 30 μl of 3× designated drug for an additional 5 minutes. After drug incubation, plates were read in an LB940 Mithras plate reader (Berthold Technologies) with a 395 nm (RLuc8-coelenterazine 400a) and 510 nm (GFP2) emission filters, at 1 s integration times. Each plate was read four times, and measurements from the fourth read were used in all analyses. BRET ratio was computed as the ratio of the GFP2 emission to rLuc8 emission. Data were normalized to % WT stimulation with indicated reference agonist and analyzed using nonlinear regression “log(agonist) vs. response” in GraphPad Prism 9.0. Log(agonist) vs normalized response—variable slope was used for (R)-ZINC-3573 pocket mutations (D184 Å, E164 Å, W243 Å, F244 Å, L247 Å, and W248 Å).

MRGPRX4 [2] = molecular target: MRGPRX4 (Homo sapiens, UniProt Q96LA9, Y130A); experiment: Mutagenesis of MRGPRX4, agonist-stimulated Gq activation; format: cell-based
Description: as §1

MRGPRX4 [3] = molecular target: MRGPRX4 (Homo sapiens, UniProt Q96LA9, L83S); experiment: as above; format: cell-based
Description: as §1

320 GPCRs = experiment: PRESTO-Tango GPCRome screening; format: cell-based; conditions: 3 μM
Description: GPCRome Screening. Screening of compounds against the PRESTO-Tango GPCRome was accomplished using previously described methods with several modifications (63). First, HTLA cells were plated in white 384-well clear bottom plates (Greiner) in DMEM (Sigma) with 1% (v/v) dialyzed FBS and 10 U per mL penicillin-streptomycin (Gibco). After 24 h, the cells were transfected using PEI (Sigma) with an in-plate adapted method (64). Briefly, 17 ng per well PRESTO-Tango GPCR DNAs were resuspended in OptiMEM (Gibco) and hybridized with PEI prior to dilution and distribution into 384-well plates and subsequent addition to cells. After overnight incubation, MS47134 at 5× final concentration (3 μM) diluted in DMEM with 1% (v/v) dialyzed FBS were added to cells without replacement of the medium for 18-20 h. On the day of assay, medium and drug solution were dumped and loaded with 20 ul per well of Bright-Glo reagent (Promega). Plates were incubated for 20 min in the dark and the luminescence was counted for cells using SpectraMax Luminescence reader. Dopamine receptor D2 serves as an assay control with 0.1 mM Quinpirole. Data were analyzed using GraphPad Prism 9.0.

[4] = molecular target: Kir6.2/SUR1 potassium channel (Homo sapiens (Human), UniProt Q09428+Q14654); experiment: Electrophysiology of Kir6.2/SUR1 in HEK293 cells; format: cell-based; conditions: compared to nateglinide
Description: Electrophysiology. HEK293 cells were cultured in DMEM with 4.5 g L-^1 glucose, L-glutamine, and sodium pyruvate (Mediatech) containing 10% (v/v) FBS (Axenia BioLogix) and 1% (v/v) penicillin-streptomycin, at 37° C. and with 5% CO2. Cells were lifted with trypsin-EDTA (Life Technologies) and passaged to 6-well plates (Warner Instruments) 3-4 d before recording. Transient transfection was performed with Lipofectamine 2000 (Thermo Fisher Scientific) 2 days before recording. The plasmids of human Kir6.2 and SUR1 were the gift from Dr. Show-Ling Shyng (Oregon Health and Science University), and we fused mCherry fluorescent protein to the C-terminus of Kir6.2. The vector ratio for co-transfection of Kir6.2 to SUR1 was 1:10. Before recording, cells were lifted with trypsin-EDTA, kept in modified Tyrode's saline (140 mM NaCl, 5 mM KCl, 10 mM HEPES, 2 mM CaCl2), 1 mM MgCl2, 10 mM glucose, pH 7.2 ˜ 7.3 with HCl), and were used within 8 hours. For recording, an aliquot of cells was transferred to a recording chamber on a Nikon-TE2000 Inverted Scope (Nikon Instruments), and transfection was confirmed with fluorescent microscopy. The pipette solution contained: 145 mM KCl, 1 mM MgCl2, 5 mM EGTA, 2 mM CaCl2), 20 mM HEPES, 0.3 mM K2-ATP and 0.3 mM K2-ADP. Patch borosilicate pipettes (Sutter Instrument) were pulled from a Sutter P-97 puller with resistances of 2-3 MΩ. […]

MRGPRX4 [5] = molecular target: T1, MRGPRX4 (Homo sapiens (Human), UniProt Q96LA9); experiment: MRGPRX4 agonist activity (FLIPR Ca2+ assay, concentration-response); format: cell-based
Description: FLIPR Ca2+ assay. Tetracycline inducible MRGPRX2 or MRGPRX4 stable cells [Flp-In™ T-REx™-293 cell which is derived from HEK 293 cells (ATCC, CRL 1573)] were maintained in DMEM containing 10% (v/v) FBS, 100 units ml^−1 penicillin G, 100 μg ml^−1 streptomycin, 100 μg ml^−1 hygromycin B, and 15 μg ml^−1 blasticidin ^16. NK1 stably expressing cell were maintained in DMEM containing 10% (v/v) FBS, 100 units ml^−1 penicillin G and 100 μg ml^−1 streptomycin. On the day of assay, cells were plated into Poly-L-Lysine (PLL) coated 384-well black clear bottom cell culture plates with DMEM buffer, which is composed of 1% (v/v) dialyzed FBS, 100 units ml^−1 penicillin G, 100 μg ml^−1 streptomycin with 1 μg ml^−1 tetracycline at density of 20,000 cells in 40 μl per well for overnight. For NK1 stable cells, the same media used for MRGPRX2 or MRGPRX4 cells except the tetracycline were used. […] Once loaded in FLIPR (Molecular Devices), basal fluorescence was measured for 10 s, then 10 μl of test compounds were added followed by continued fluorescence measurement for an additional 120 s. […] Data were normalized to % reference compound stimulation and analyzed using nonlinear regression “log(agonist) vs. response” in GraphPad Prism 9.0.

MRGPRX4 [6] = molecular target: T1, MRGPRX4; conditions: previously identified (ref. 17); cited from earlier work
MRGPRX2 [7] = molecular target: MRGPRX2 (Homo sapiens, UniProt Q96LB1, F170A); experiment: BRET2 Gq activation, MRGPRX2 pocket mutants, HEK293T cells; format: cell-based
Description: as §1

MRGPRX2 [8] = molecular target: MRGPRX2 (Homo sapiens, UniProt Q96LB1, W243A); experiment: as above; format: cell-based
Description: as §1

T1 sequence (Q96LA9 whole entry): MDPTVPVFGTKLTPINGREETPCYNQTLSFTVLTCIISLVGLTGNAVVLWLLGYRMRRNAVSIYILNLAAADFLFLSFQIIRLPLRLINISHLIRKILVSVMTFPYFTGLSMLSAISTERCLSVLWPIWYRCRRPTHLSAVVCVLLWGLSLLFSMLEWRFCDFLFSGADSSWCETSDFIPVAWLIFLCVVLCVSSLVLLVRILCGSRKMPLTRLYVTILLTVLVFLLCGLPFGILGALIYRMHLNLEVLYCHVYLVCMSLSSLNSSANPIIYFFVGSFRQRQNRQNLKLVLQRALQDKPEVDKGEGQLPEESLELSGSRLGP
Chain of Kir6.2/SUR1 potassium channel (Q09428 whole entry, the tested form may be a part): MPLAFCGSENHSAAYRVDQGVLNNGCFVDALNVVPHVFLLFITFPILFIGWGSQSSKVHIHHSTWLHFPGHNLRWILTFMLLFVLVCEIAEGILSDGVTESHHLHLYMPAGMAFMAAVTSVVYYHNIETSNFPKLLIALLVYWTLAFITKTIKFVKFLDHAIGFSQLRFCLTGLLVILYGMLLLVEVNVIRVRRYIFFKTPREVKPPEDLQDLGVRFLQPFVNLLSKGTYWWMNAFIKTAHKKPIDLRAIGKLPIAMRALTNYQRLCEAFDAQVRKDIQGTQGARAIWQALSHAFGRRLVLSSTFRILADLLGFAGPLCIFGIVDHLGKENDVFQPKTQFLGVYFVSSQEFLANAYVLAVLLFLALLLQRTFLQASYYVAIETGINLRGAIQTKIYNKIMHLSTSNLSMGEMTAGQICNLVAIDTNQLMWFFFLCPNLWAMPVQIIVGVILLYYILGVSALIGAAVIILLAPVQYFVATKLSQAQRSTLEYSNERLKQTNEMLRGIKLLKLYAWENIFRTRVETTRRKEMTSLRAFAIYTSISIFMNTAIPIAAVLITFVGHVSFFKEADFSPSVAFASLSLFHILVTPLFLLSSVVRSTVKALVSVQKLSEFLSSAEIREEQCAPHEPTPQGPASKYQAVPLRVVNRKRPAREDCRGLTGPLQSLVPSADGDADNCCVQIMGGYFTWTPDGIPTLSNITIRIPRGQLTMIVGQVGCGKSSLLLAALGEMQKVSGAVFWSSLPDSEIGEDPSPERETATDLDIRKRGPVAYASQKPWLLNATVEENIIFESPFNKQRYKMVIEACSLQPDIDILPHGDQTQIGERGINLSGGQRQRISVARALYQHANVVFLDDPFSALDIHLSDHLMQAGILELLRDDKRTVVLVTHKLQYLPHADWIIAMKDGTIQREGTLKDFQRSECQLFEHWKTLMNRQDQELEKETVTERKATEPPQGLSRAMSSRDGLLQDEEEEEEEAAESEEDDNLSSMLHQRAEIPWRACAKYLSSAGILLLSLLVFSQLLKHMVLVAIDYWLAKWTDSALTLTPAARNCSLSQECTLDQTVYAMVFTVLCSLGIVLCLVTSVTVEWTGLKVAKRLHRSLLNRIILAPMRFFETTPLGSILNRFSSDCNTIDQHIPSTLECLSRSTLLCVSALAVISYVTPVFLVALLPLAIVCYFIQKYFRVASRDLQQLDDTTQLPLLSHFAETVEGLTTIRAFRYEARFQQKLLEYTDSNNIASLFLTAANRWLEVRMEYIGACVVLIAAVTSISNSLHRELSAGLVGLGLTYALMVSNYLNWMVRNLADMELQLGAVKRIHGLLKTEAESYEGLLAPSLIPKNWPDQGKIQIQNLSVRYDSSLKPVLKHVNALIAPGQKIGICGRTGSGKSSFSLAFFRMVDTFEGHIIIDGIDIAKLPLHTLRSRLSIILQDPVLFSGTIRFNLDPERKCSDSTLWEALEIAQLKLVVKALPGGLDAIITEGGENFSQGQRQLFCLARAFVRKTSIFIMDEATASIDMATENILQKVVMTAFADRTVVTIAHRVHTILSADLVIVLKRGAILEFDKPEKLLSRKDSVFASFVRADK
Chain of Kir6.2/SUR1 potassium channel (Q14654 whole entry, the tested form may be a part): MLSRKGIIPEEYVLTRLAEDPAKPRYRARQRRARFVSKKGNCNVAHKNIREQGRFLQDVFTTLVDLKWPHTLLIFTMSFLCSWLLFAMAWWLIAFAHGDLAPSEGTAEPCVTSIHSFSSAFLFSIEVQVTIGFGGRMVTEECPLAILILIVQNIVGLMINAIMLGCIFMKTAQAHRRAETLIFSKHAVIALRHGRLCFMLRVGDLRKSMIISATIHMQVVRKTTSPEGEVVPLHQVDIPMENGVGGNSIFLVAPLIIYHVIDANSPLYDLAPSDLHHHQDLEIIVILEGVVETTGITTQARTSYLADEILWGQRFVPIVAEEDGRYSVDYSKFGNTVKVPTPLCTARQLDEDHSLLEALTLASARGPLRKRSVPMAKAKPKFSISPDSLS

Compound: CN(C)[C@@H]1CCN(c2cc(-c3ccccc3)nc3ccnn23)C1 [(R)-ZINC-3573]
- effect of substitution of D184(5.38) and E164(4.60) on efficacy (MRGPRX2 [1]): impaired the efficacy

Compound: C[C@]12CC3CC(C(=O)N[C@H](Cc4ccccc4)C(=O)O)(C1)C[C@@](C)(C3)C2 [MS47134]
- effect of Y130(ICL2)A mutation on potency of Gq activation (MRGPRX4 [2]): reduced the potency
- effect of L83S mutation on potency (MRGPRX4 [3]): greatly attenuated the potency
- off-target profiling at 320 GPCRs (320 GPCRs): activity only at MRGPRX4 and MRGPRX1
- improved selectivity for MRGPRX4 over the Kir6.2/SUR1 potassium channel [4]: 47 fold
- EC50 (MRGPRX4 [5]): 150 nM

Compound: CC(C)[C@H]1CC[C@H](C(=O)N[C@H](Cc2ccccc2)C(=O)O)CC1 [nateglinide, reference compound]
- effect of L83S mutation on potency (MRGPRX4 [3]): greatly attenuated the potency
- agonist potency at MRGPRX4 (MRGPRX4 [6]): low micromolar agonist

Compound: cortistatin-14
- reduction of potency by F170(ECL2)A mutation (MRGPRX2 [7]): 7 fold
- effect of W243(6.55)A substitution on activity (MRGPRX2 [8]): completely reduced the activity
